Experimental findings from patent US20080125432A1 (Devgen NV, priority 2004, published 2008) are described below.

What is called melting point is the temperature, or range, at which the solid turns liquid.

Series [1] has as its target T1, human Kv4.3/KChIP2.2 potassium channel (Homo sapiens, UniProt Q9UK17).
T1 construct: expressed in transfected cells
T1 sequence (Q9UK17 1-655): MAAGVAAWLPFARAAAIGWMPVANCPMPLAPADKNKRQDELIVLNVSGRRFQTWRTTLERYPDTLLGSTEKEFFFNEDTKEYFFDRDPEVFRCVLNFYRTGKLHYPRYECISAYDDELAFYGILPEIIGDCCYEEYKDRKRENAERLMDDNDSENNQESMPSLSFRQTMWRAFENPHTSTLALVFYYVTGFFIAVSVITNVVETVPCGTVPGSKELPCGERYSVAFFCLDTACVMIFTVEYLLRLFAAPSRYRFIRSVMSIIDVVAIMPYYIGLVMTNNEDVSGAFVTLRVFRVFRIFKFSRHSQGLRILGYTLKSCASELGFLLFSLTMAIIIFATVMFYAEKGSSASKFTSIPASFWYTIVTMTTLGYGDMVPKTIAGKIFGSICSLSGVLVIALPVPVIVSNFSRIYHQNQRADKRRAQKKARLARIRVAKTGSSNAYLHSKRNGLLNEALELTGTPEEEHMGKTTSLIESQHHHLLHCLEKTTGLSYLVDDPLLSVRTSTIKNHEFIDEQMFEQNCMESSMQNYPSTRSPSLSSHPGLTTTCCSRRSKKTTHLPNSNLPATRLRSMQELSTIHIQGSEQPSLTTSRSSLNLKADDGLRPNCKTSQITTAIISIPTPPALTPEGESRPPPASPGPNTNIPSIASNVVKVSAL
The series is described as follows: Whole cell patch clamp, CHO-K1 cells stably expressing human Kv4.3/KChIP2.2. In kind it is cell-based. The settings on record: CHO-K1. The method, then:
For this experiment, a recombinant CHO-K1 cell line stably expressing the human Kv4.3/KChIP2.2 potassium channel was used. The cells used for this experiment were kept in continuous culture under standard conditions (37° C., air supplemented with 7% CO2). The CHO-K1 Kv4.3/KChIP2.2 cells were kept in Iscove s modified DMEM (Dulbecco's Modified Eagle's Medium) medium (IMEM) supplemented with 100 U/ml Penicillin, 100 μg/ml Streptomycin, 7% fetal calf serum (FCS), 2.5 μg/ml amphotericin, 400 μg/ml G418, and 400 μg/ml Zeocin™. Cells were passed every 3-4 days after detachment using a Trypsin solution. The quality of the cultured cells was guaranteed by vitality and contamination tests. The culture of the cells was performed as described in protocol D hereunder.
10 mM stock solutions of the compounds were prepared in DMSO. Solutions of the compounds were prepared by dilution of stock solution in bath solution. If the required stock solution volume was theoretically below 1 μl, bath solutions with higher compound concentration were used for dilution. The maximal DMSO concentration during experiments was 0.1% (v/v).
Activity of the human Kv4.3/KChIP2.2 channel was investigated using the patch clamp technique in its whole cell mode. This means that the current needed for clamping the whole cell expressing the K^+-channel protein to a specific potential was measured. Experiments were performed using a patch clamp set-up. Technical equipment needed for manipulation of the cells was placed on a vibration-isolated table and shielded with a Faraday cage to minimize electrical noise. The amplifier and control system were placed in a rack outside the Faraday cage. The system consisted of an EPC9 or EPC10 patch clamp amplifier (HEKA, Lambrecht, Germany), and the perfusion system DADVC8 (ALA Scientific, New York, USA) controlled by the Pulse software package (HEKA, Lambrecht, Germany) installed on a personal computer. The pipettes used for patch clamping were made of borosilicate glass.
Measurements were performed at room temperature (20-25° C.). In each experiment (i.e. each cell) only one concentration of the compounds was investigated no cumulative dosages were performed. Each cell acted as its own control. […]
Between voltage pulses the cell was clamped to a holding potential of −80 mV (inside). The test protocols are illustrated in FIG. 1 and Table 4. The test protocol illustrated in FIG. 1a was used to characterize the properties of the Kv4.3/KChIP2.2 channel and to check the quality of the individual patch clamp experiment (voltage control). […] Each test protocol consisted of 4 segments.
After the whole cell configuration was established a current-voltage curve (IV activation 1; FIG. 1a and Table 4a) was recorded under constant superfusion with bath solution to check for Kv4.3/KChIP2.2 expression and the quality of the individual patch clamp experiment (voltage control). Subsequently, 14 test pulses (series 1; FIG. 1b and Table 4b) were applied at 0.1 Hz under constant superfusion with bath solution. The protocol was initiated by a voltage jump to 100 mV (400 ms) to achieve full inactivation. Then the Kv4.3/KChIP2.2 channels were transferred to the open state by depolarization to +40 mV for 300 milliseconds (activation). Only cells generating current amplitudes between 1 nA and 50 nA were used for the experimental procedure. No or negligible rundown was observed.
Then, 36 test pulses (series 2) were applied at 0.1 Hz under constant superfusion with the compound dissolved in bath solution. Finally, another current-voltage curve was recorded in the presence of the compounds (IV activation 2).
Three different types of analysis were used: Inhibition at the peak current, inhibition of translocated charge and inhibition 75 ms after activation at +40 mV (sustained current). The peak current/charge/current at 75 ms was determined using the online analysis tool of the HEKA pulse software package. […]
(The patch-clamp technique gives a direct electrical read-out from membranes.)

Where [2] appears, read: remaining current measured after application of the compound and relative to the blank, read-out: Kv4.3 charge in %.
Where [3] appears, read: remaining peak height measured after application of the compound and relative to the blank, read-out: Kv4.3 peak in %.

Each structure is given as a SMILES string. Like-named read-outs stand apart in the source and are kept apart here.

The molecule `COc1ccccc1Nc1nc(C)c(C(=O)Nc2ccccc2)s1` [Compound 82, 2-(2-methoxy-phenylamino)-4-methyl-thiazole-5-carboxylic acid phenylamide] yielded a melting point of 183.5 to 188.1 °C. In series [1] (setting [2]), the remaining activity at 1 µM was determined as 82%. In series [1] (setting [3]), the remaining activity at 1 µM was 91%.

Consider `COc1ccccc1Nc1nc(C)c(C(=O)NC2Cc3ccccc3C2)s1` [Compound 83, 2-(2-methoxy-phenylamino)-4-methyl-thiazole-5-carboxylic acid indan-2-ylamide], for which the melting point was 143.2 to 147.6 °C. For the same molecule, in series [1] (setting [2]), the remaining activity at 1 µM was 77%. The remaining activity at 1 µM in series [1] (setting [3]) amounted to 97%.

For the molecule `COc1ccccc1Nc1nc(C)c(C(=O)N2Cc3ccccc3C2)s1` [Compound 84, (1,3-dihydro-isoindol-2-yl)-[2-(2-methoxy-phenylamino)-4-methyl-thiazol-5-yl]-methanone], the melting point lay within 147.6 to 149.6 °C. For the same molecule, the remaining activity at 1 µM in series [1] (setting [2]) turned out to be 87%. The remaining activity at 1 µM in series [1] (setting [3]) amounted to 99%.

For the molecule `COc1ccccc1Nc1nc(C)c(C(=O)N2CCc3ccccc3C2)s1` [Compound 85, (3,4-dihydro-1H-isoquinolin-2-yl)-[2-(2-methoxy-phenylamino)-4-methyl-thiazol-5-yl]-methanone], the melting point is 159.3 to 163.5 °C. Moreover, the remaining activity at 1 µM in series [1] (setting [2]) worked out at 82%. Also, in series [1] (setting [3]), the remaining activity at 1 µM stood at 96%.

`COc1ccccc1Nc1nc(C)c(C(=O)N2CCCCC2Cc2ccccc2)s1` (stereo not drawn) [Compound 86, (2-benzyl-piperidin-1-yl)-[2-(2-methoxy-phenylamino)-4-methyl-thiazol-5-yl]-methanone]: the melting point lay in the range of 93.2 to 95.6 °C. Also, the remaining activity at 1 µM in series [1] (setting [2]) was determined as 79%. In series [1] (setting [3]), the remaining activity at 1 µM came out at 102%.

The molecule `COc1ccccc1Nc1nc(C)c(C(=O)NCCOCc2ccccc2)s1` [Compound 88, 2-(2-methoxy-phenylamino)-4-methyl-thiazole-5-carboxylic acid (2-benzyloxy-ethyl)-amide] showed a melting point of 44.6 to 47.6 °C. Besides, the remaining activity at 1 µM in series [1] (setting [2]) was determined as 85%. Moreover, the remaining activity at 1 µM in series [1] (setting [3]) is 95%.

The molecule `CCOC(=O)c1cccc(Nc2nc(C)c(C(=O)N[C@H]3CCC[C@@H]3OCc3ccccc3)s2)c1` [Compound 89, 3-[5-((1S,2S)-2-benzyloxy-cyclopent-1-ylcarbamoyl)-4-methyl-thiazol-2-ylamino]-benzoic acid ethyl ester] showed a melting point of 145.7 to 148 °C. Further, the remaining activity at 1 µM in series [1] (setting [2]) stood at 55%. Moreover, in series [1] (setting [3]), the remaining activity at 1 µM is 93%.

As to `COc1ccccc1Nc1nc(C)c(C(=O)NCc2ccc(CNC(C)=O)cc2)s1` [Compound 96, 2-(2-methoxy-phenylamino)-4-methyl-thiazole-5-carboxylic acid 4-(acetylamino-methyl)-benzylamide], the melting point lay within 199.7 to 200.3 °C. Moreover, in series [1] (setting [2]), the remaining activity at 1 µM came to 85%. Also, the remaining activity at 1 µM in series [1] (setting [3]) came out at 99%.

As to `COc1ccccc1Nc1nc(C)c(C(=O)NCc2ccc(Oc3ccccc3)cc2)s1` [Compound 102, 2-(2-methoxy-phenylamino)-4-methyl-thiazole-5-carboxylic acid 4-phenoxy-benzylamide], the melting point fell in the range of 159.7 to 162.4 °C. The remaining activity at 1 µM in series [1] (setting [2]) came to 76%. Further, in series [1] (setting [3]), the remaining activity at 1 µM is 89%.

On to `COc1ccccc1Nc1nc(C)c(C(=O)NCc2ccc(-c3cccs3)cc2)s1` [Compound 103, 2-(2-methoxy-phenylamino)-4-methyl-thiazole-5-carboxylic acid 4-thiophen-2-yl-benzylamide], for which the melting point was 195.6 to 198.6 °C. Further, the remaining activity at 1 µM in series [1] (setting [2]) amounted to 64%. Moreover, the remaining activity at 1 µM in series [1] (setting [3]) came out at 89%.

`COc1ccccc1Nc1nc(C)c(C(=O)N[C@H](C(=O)O)c2ccccc2)s1` [Compound 114, (S)-{[2-(2-methoxy-phenylamino)-4-methyl-thiazole-5-carbonyl]-amino}-phenyl-aceticacid] returned a melting point of 259.6 to 262 °C. In addition, the remaining activity at 1 µM in series [1] (setting [2]) was 88%. Also, in series [1] (setting [3]), the remaining activity at 1 µM was 87%.

With `COc1ccccc1Nc1nc(C)c(C(=O)NCc2ccsc2)s1` [Compound 118, 2-(2-methoxy-phenylamino)-4-methyl-thiazole-5-carboxylic acid (thiophen-3-ylmethyl)-amide], the melting point was in the range of 153.4 to 154.8 °C. Also, the remaining activity at 1 µM in series [1] (setting [2]) came out at 85%. Also, the remaining activity at 1 µM in series [1] (setting [3]) worked out at 94%.

Molecule `COc1ccccc1Nc1nc(C)c(C(=O)OCc2ccccc2)s1` [Compound 123, 2-(2-methoxy-phenylamino)-4-methyl-thiazole-5-carboxylic acid benzyl ester] came in with a melting point of 98.4 to 100 °C. The remaining activity at 1 µM in series [1] (setting [2]) was found to be 31%. In series [1] (setting [3]), the remaining activity at 1 µM was found to be 72%.

The molecule `COc1ccccc1Nc1nc(C)c(C(=O)NCc2ccccc2)s1` [Compound 124, 2-(2-methoxy-phenylamino)-4-methyl-thiazole-5-carboxylic acid benzylamide] returned a melting point of 153.6 to 156.2 °C. Further, the remaining activity at 1 µM in series [1] (setting [2]) turned out to be 90%. Moreover, in series [1] (setting [3]), the remaining activity at 1 µM came to 95%.

Regarding `COc1ccccc1Nc1nc(C)c(C(=O)N2CCN(Cc3ccccc3)C[C@@H]2Cc2ccccc2)s1` [Compound 125, ((S)-2,4-dibenzyl-piperazin-1-yl)-[2-(2-methoxy-phenylamino)-4-methyl-thiazol-5-yl]-methanone], the melting point lay in the range of 89.3 to 92.5 °C. The remaining activity at 1 µM in series [1] (setting [2]) came to 74%. The remaining activity at 1 µM in series [1] (setting [3]) was found to be 95%.

As to `COc1ccccc1Nc1nc(C)c(C(=O)NCc2ccc(C)cc2)s1` [Compound 142, 2-(2-methoxy-phenylamino)-4-methyl-thiazole-5-carboxylic acid 4-methyl-benzylamide], the melting point was 166.8 to 168.3 °C. In series [1] (setting [2]), the remaining activity at 1 µM amounted to 74%. The remaining activity at 1 µM in series [1] (setting [3]) came to 80%.

As for `COc1ccccc1Nc1nc(C)c(C(=O)NCc2cc(C)ccc2C)s1` [Compound 160, 2-(2-methoxy-phenylamino)-4-methyl-thiazole-5-carboxylic acid 2,5-dimethyl-benzylamide], the melting point is 124.1 to 124.9 °C. Further, the remaining activity at 1 µM in series [1] (setting [2]) turned out to be 90%. Further, the remaining activity at 1 µM in series [1] (setting [3]) amounted to 99%.
